Test results as given in patent US20260116845A1, “LIPIDS AND COMPOSITIONS THEREOF” (Kernal Biologics, Inc., priority 2023, published 2026).

Tests used:
AML12 Cell Line = assay: Transfection of AML12 Cell Line with FLuc mRNA LNPs (ONE-Glo EX luciferase signal); assay type: cell-based; settings: 200 ng Fluc mRNA-LNP, 24 hours
Procedure, shortened: (§1)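 Firefly luciferase luminescence measured 24 h after transfection with 200 ng mRNA-LNP per well in Opti-MEM. Seeding: 5,000 cells/well for B16F10 and MC38.K, 20,000 for AML12. LNPs were pre-incubated 30 min with mouse serum; mRNA content determined by RiboGreen.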

B16F10 Cell Line = assay: Transfection of B16F10 Cell Line with FLuc mRNA LNPs (ONE-Glo EX luciferase signal); assay type: cell-based; settings: 200 ng Fluc mRNA-LNP, 24 hours
Procedure, shortened: as §1

Liver = assay: Ex-vivo luminescence signal from liver after IV Fluc mRNA LNPs in CD1 mice (IVIS); settings: tail vein 1.0 mg/kg Day 0 and Day 2, imaging 18 hours after second dose; for Total Liver Tissue Luciferin Signal (Photons/s) Ex-vivo - CD1: Table 4; for Total Liver Tissue Luciferin Signal (Photons/s) In Vivo-Cd1: Table 5
MC38.K Cell Line = assay: Transfection of MC38.K Cell Line with FLuc mRNA LNPs (ONE-Glo EX luciferase signal); assay type: cell-based; settings: 200 ng Fluc mRNA-LNP, 24 hours; for Total Luciferin Signal (RLU) In Vitro - MC38.K: Table 4; for Total Luciferin Signal (RLU) In Vitro-MC38: Table 5
Procedure, shortened: as §1

Spleen = assay: Ex-vivo luminescence signal from spleen after IV Fluc mRNA LNPs in CD1 mice (IVIS); settings: tail vein 1.0 mg/kg Day 0 and Day 2, imaging 18 hours after second dose, Table 5

SMILES | Total Luciferin Signal (RLU) In Vitro - AML12 (AML12 Cell Line; Table 4) [RLU] | Total Luciferin Signal (RLU) In Vitro - B16F10 (B16F10 Cell Line; Table 4) [RLU] | Total Liver Tissue Luciferin Signal (Photons/s) Ex-vivo - CD1 (Liver) [Photons/s] | Total Luciferin Signal (RLU) In Vitro - MC38.K (MC38.K Cell Line) [RLU] | Total Luciferin Signal (RLU) In Vitro - AML12 (AML12 Cell Line; Table 5) [RLU] | Total Luciferin Signal (RLU) In Vitro - B16F10 (B16F10 Cell Line; Table 5) [RLU] | Total Liver Tissue Luciferin Signal (Photons/s) In Vivo-Cd1 (Liver) [Photons/s] | Total Spleen Tissue Luciferin Signal (Photons/s) In Vivo-Cd1 (Spleen) [Photons/s] | Total Luciferin Signal (RLU) In Vitro-MC38 (MC38.K Cell Line) [RLU]
CCCCCCCCC(CCCCCCCCF)OC(=O)CCCCCN(CCCCO)CCCCCC(=O)OCCCCCCCCCCC(C)C (stereo not shown) [Compound 63, 1-fluoroheptadecan-9-yl 6-((4-hydroxybutyl)(6-((11-methyldodecyl)oxy)-6-oxohexyl)amino)hexanoate] | 5.69E+05 | 6.91E+05 | 3.02E+09 | 1.35E+07 | – | – | – | – | –
CCCCCCCCC(CCCCCCCCF)OC(=O)CCCCCN(CCCCO)CCCCC(C)C(=O)OCCCCCCCCCCC(C)C (stereo not shown) [Compound 64, 11-methyldodecyl 6-((6-((1-fluoroheptadecan-9-yl)oxy)-6-oxohexyl)(4-hydroxybutyl)amino)-2-methylhexanoate] | 1.02E+06 | 1.10E+06 | 4.39E+09 | 2.41E+07 | – | – | – | – | –
CCCCCCCCC(CCCCCCCCF)OC(=O)CCCCCN(CCO)CCCCC(C)C(=O)OCCCCCCCCCCC(C)C (stereo not shown) [Compound 65, 11-methyldodecyl 6-((6-((1-fluoroheptadecan-9-yl)oxy)-6-oxohexyl)(2-hydroxyethyl)amino)-2-methylhexanoate] | 3.24E+05 | 3.78E+05 | 4.01E+09 | 3.81E+06 | – | – | – | – | –
CCCCCCCCC(CCCCCCCCF)OC(=O)CCCCCCCN(CCO)CCCCCCC(C)C(=O)OCCCCCCCCC(C)C (stereo not shown) [Compound 66, 9-methyldecyl 8-((8-((1-fluoroheptadecan-9-yl)oxy)-8-oxooctyl)(2-hydroxyethyl)amino)-2-methyloctanoate] | 1.16E+06 | 1.12E+06 | 9.44E+09 | 5.75E+06 | – | – | – | – | –
CCCCCCCCC(CCCCCCCCF)C(=O)OCCCCCCCN(CCCCO)CCCCCCCOC(=O)CCCCCCCCC(C)C (stereo not shown) [Compound 69, 7-((7-((10-fluoro-2-octyldecanoyl)oxy)heptyl)(4-hydroxybutyl)amino)heptyl 10-methylundecanoate] | 8.05E+06 | 3.62E+06 | 4.64E+09 | 4.67E+07 | – | – | – | – | –
CCCCCCCCC(CCCCCCCCF)OC(=O)CCCCCN(CCO)CCCCCC(=O)OCCCCCCCCCCC(C)C (stereo not shown) [Compound 70, 1-fluoroheptadecan-9-yl 6-((2-hydroxyethyl)(6-((11-methyldodecyl)oxy)-6-oxohexyl)amino)hexanoate] | 7.41E+05 | 7.68E+05 | 4.87E+09 | 5.15E+06 | – | – | – | – | –
CCCCCCCCCOC(=O)CCCCCCCN(CCCCO)CCCCCCCC(=O)OCC(CCCCCC)CCCCCCCCF (stereo not shown) [Compound 71, 10-fluoro-2-hexyldecyl 8-((4-hydroxybutyl)(8-(nonyloxy)-8-oxooctyl)amino)octanoate] | 4.77E+06 | 1.67E+06 | 1.75E+09 | 1.57E+07 | – | – | – | – | –
CCCCCCCCCOC(=O)CCCCCCCN(CCO)CCCCCCCC(=O)OCC(CCCCCC)CCCCCCCCF (stereo not shown) [Compound 72, 10-fluoro-2-hexyldecyl 8-((2-hydroxyethyl)(8-(nonyloxy)-8-oxooctyl)amino)octanoate] | 2.78E+06 | 7.23E+05 | 3.60E+09 | 5.53E+06 | – | – | – | – | –
CCCCCCCCCCCCC1CN(CCO)CC(CCCCCCCCCCCC)O1 (stereo not shown) [Compound 90, 2-(2,6-didodecylmorpholino)ethan-1-ol] | – | – | – | – | 2.69E+04 | 8.93E+04 | 3.35E+06 | 5.69E+05 | –
CCCCCCCC/C=C\CCCCCCC1CN(CCO)CC(CCCCCCCCCCCC)O1 (stereo not shown) [Compound 91, (Z)-2-(2-dodecyl-6-(hexadec-7-en-1-yl)morpholino)ethan-1-ol] | – | – | – | – | 1.94E+04 | 2.02E+05 | 3.65E+06 | 1.44E+06 | –
CCCCCCCC/C=C\CCCCCCC1CN(CCO)CC(CCCCCC/C=C\CCCCCCCC)O1 (stereo not shown) [Compound 92, 2-(2,6-di((Z)-hexadec-7-en-1-yl)morpholino)ethan-1-ol] | – | – | – | – | 2.46E+04 | 8.03E+05 | 1.07E+07 | 2.05E+06 | –
CCCCCCCC/C=C\CCCCCCC1CN(CCOC(=O)CCCN(C)C)CC(CCCCCC/C=C\CCCCCCCC)O1 (stereo not shown) [Compound 93, 2-{2,6-bis[(Z)-7-hexadecenyl]-4-morpholinyl}ethyl 4-(dimethylamino)butyrate] | – | – | – | – | 3.05E+07 | 4.80E+05 | 1.72E+06 | 2.48E+06 | 3.69E+05
CCCCCCCC/C=C\CCCCCCC1CN(CCOC(=O)CCCN(C)C)CC(CCCCCC(=O)OC(CCCCCCCC)CCCCCCCC)O1 (stereo not shown) [Compound 94, heptadecan-9-yl (Z)-6-(4-(2-((4-(dimethylamino)butanoyl)oxy)ethyl)-6-(hexadec-7-en-1-yl)morpholin-2-yl)hexanoate] | – | – | – | – | 1.41E+06 | 2.82E+06 | 1.30E+07 | 1.22E+07 | 1.75E+06
CCCCCCCC/C=C\CCCCCCC1CN(CCOC(=O)CCN(C)C)CC(CCCCCC/C=C\CCCCCCCC)O1 (stereo not shown) [Compound 95, 2-(2,6-di((Z)-hexadec-7-en-1-yl)morpholino)ethyl 3-(dimethylamino)propanoate] | – | – | – | – | 1.49E+05 | 2.09E+05 | 2.92E+06 | 2.69E+06 | 7.12E+04
CCCCCCCC/C=C\CCCCCCC1CN(CCCOC(=O)CCN(C)C)CC(CCCCCC/C=C\CCCCCCCC)O1 (stereo not shown) [Compound 96, 3-(2,6-di((Z)-hexadec-7-en-1-yl)morpholino)propyl 3-(dimethylamino)propanoate] | – | – | – | – | 1.49E+05 | 1.16E+05 | 4.34E+06 | 6.35E+06 | 1.25E+05
